Results from patent US4695622A, “Hexapeptide” (Vsesojuzny Kardiologichesky Nauchny Tsentr Akademii …, priority 1984, dated 1987).
Residues, ends and D or L forms follow the SMILES beside them.

Legend:
[1] = test system: experimental hemorrhagic pancreonecrosis; test: Enzymatic activity in blood serum in experimental hemorrhagic pancreonecrosis (acute pancreatitis model); type: in vivo, dogs
Description: (§1) The biological activity of the hexapeptide according to the present invention has been studied in experiments on dogs using an experimental acute pancreatitis model.
(§2) To this end, a similar operation was performed on 10 dogs. Under hexenal narcosis upper-median laparotomy was made. Into the wound a loop of duodenum was introduced with pancreas, cannulated and Wirsung's duct was dressed on a drain Snatorini's duct was additionally dressed too. Then the gall-bladder was punctured, bile was extracted therefrom and injected under pressure into Wirsung's duct at the rate of 0.5 ml per kg of the animal's bodyweight. As a stimulant of the pancreas secretion secretin and cholecystopancreoziimin were used which were intravenously administered at the rate of two units per kg of a dog's bodyweight. For administration of the stimulants of the pancreatic secretion, the hexapeptide according to the present invention and obtaining blood, the femoral vein was catheterized. For the measurement of diuresis and urine examination epicystostomy was effected or both ureters were catheterized. All the experiments were carried out on an empty stomach of the animals.
Prior to introduction of bile into Wirsung's duct, background samples of blood, urina and pancreatic juice were taken for special enzymological investigations. After administration of bile into Wirsung's duct the same biological tests were carried out every hour until the experiment was completed. The activity of the following pancreatic enzymes was studied: α-amylase, lipase, total esterase activity, antitryptic activity.
(§3) 30 minutes after the administration of bile into Wirsung's duct and then every 2 hours small pieces of pancreas tissue were taken from the animals from various sections for morphological investigations. In the second series of experiments 5 dogs were used. A hemorrhagic pancreonecrosis was induced in them and 2 hours after the development of acute pancreatitis an intravenous administration of the hexapeptide according to the present invention was started at the rate of 0.3 mg per kg of the animal's bodyweight. For enzymological and morphological studies the same biological samples and pieces of tissues of the pancreas were taken. The dogs were slaughtered 6-8 hours after the beginning of the experiment.
(§4) In the third series of experiments two dogs were used. The induced experimental pancreatitis was treated by means of the hexapeptide according to the present invention. The same tests were performed, but the dogs were not slaughtered. 24 hours from the beginning of the experiment and then 7 days and 15 days thereafter they were subjected to relaparotomy, the macroscopic view of pancreas was studied, pieces of the tissue of pancreas were taken for morphological studies.
(§5) The effect of the hexapeptide according to the present invention was compared with that of widely employed preparations--5-fluorouracyl an d tracilol--on the same model of acute pancreatitis.

[2] = test system: experimental hemorrhagic pancreonecrosis; test: Morphological studies of the pancreas in experimental hemorrhagic pancreonecrosis; type: in vivo, dogs; conditions: for Morphology of pancreas, early stages of treatment: tracilol 10,000 units per hour, hexapeptide 0.3 mg/kg
Description: as §1, §2
Three dogs were used in the control group of the experiments. They were treated to induce an experimental pancreatitis only without administration of the hexapeptide according to the present invention; an acute experiment lasted for 6-8 hours, whereafter the dogs were slaughtered by intracardiac administration of hexenal.
as §3, §4, §5

[3] = Acute toxicity (LD50); conditions: for LD50: acute toxicity, dose causing death of 50% of the animals; for LD50 surpasses the therapeutic dose by: therapeutic dose: 5-fluorouracyl 5 mg/kg, hexapeptide 0.3 mg/kg
[4] = Effect on cell formula of the blood and immune system; conditions: in vivo
[5] = Solubility of the powder; type: physicochemical
Description: The hexapeptide according to the present invention comprises a white powder, well soluble in distilled water, a physiological solution, ethanol; insoluble in ether, ethylacetate, benzene. The melting temperature is 173°-176° C. [α]D^22 =-19.1 (c 0.33 H2 O).

[6] = dogs, developed pancreonecrosis, hexapeptide 0.3 mg/kg

In the case of `O=c1[nH]cc(F)c(=O)[nH]1` [5-fluorouracyl, reference compound], the “Total esterase activity in blood serum” value ([1]; dogs (3), 5-fluorouracyl 5 mg/kg i.v., after 4 hours, value for developed pancreonecrosis 0.58 ± 0.07) is reported as 0.56 ± 0.02 μM/ml, the “Activity of lipase in blood serum” value ([1]; dogs (3), 5-fluorouracyl 5 mg/kg i.v., after 4 hours, value for developed pancreonecrosis 0.62 ± 0.12) is reported as 0.48 ± 0.02 units and the “Antitryptic activity in blood serum” value ([1]; dogs (3), 5-fluorouracyl 5 mg/kg i.v., after 4 hours, value for developed pancreonecrosis 22.2 ± 1.4) is reported as 20.1 ± 1.2 IU. For the same molecule, the “Activity of alpha-amylase in blood serum” value ([1]; dogs (3), 5-fluorouracyl 5 mg/kg i.v., after 4 hours, value for developed pancreonecrosis 158.0 ± 18.2) was 152.2 ± 24.1 mg/h · ml, the “Total esterase activity in blood serum” value ([1]; dogs (3), 5-fluorouracyl 5 mg/kg i.v., after 6 hours, value for developed pancreonecrosis 0.58 ± 0.07) was 0.58 ± 0.04 μM/ml and the “Activity of lipase in blood serum” value ([1]; dogs (3), 5-fluorouracyl 5 mg/kg i.v., after 6 hours, value for developed pancreonecrosis 0.62 ± 0.12) was 0.54 ± 0.08 units. For the same molecule, the “Antitryptic activity in blood serum” value ([1]; dogs (3), 5-fluorouracyl 5 mg/kg i.v., after 6 hours, value for developed pancreonecrosis 22.2 ± 1.4) was 20.1 ± 1.2 IU, the “Activity of alpha-amylase in blood serum” value ([1]; dogs (3), 5-fluorouracyl 5 mg/kg i.v., after 6 hours, value for developed pancreonecrosis 158.0 ± 18.2) was 153.3 ± 17.1 mg/h · ml and the “Characteristics of activity of enzymes in blood serum (lipase, esterase, antitryptic), in words” value ([1]; dogs, developed pancreonecrosis, 5-fluorouracyl 5 mg/kg, tracilol 10,000 units/hour) was “remain substanctially unchanged”. For the same molecule, the “Morphology of pancreas 7 days after the beginning of the treatment” value ([2]; dogs, 5-fluorouracyl 5 mg/kg) was “pronounced fibrosis of the pancreas with breaking of lobules into fragments”, the “Regeneration of the pancreas” value ([2]; dogs, 5-fluorouracyl 5 mg/kg, later stages of treatment) was “incomplete” and the “Morphology of pancreas, early stages of treatment” value ([2]; dogs, 5-fluorouracyl 5 mg/kg) was “noticeable inflammatory infiltration of necrotic zones and of the interstice is retained”. For the same molecule, the LD50 [3] was 750 mg/kg and the “LD50 surpasses the therapeutic dose by” value [3] was 150 times.

For `CC(C)C[C@H](NC(=O)[C@H](Cc1ccccc1)NC(=O)CNC(=O)[C@H](C)NC(=O)[C@@H](N)Cc1ccc(O)cc1)C(=O)N[C@@H](CCCNC(=N)N)C(=O)O` [Tyrosyl-alanyl-glycyl-phenylalanyl-leucyl-arginine] (H-YAGFLR-OH), the “Total esterase activity in blood serum” value ([1]; dogs (7), hexapeptide 0.3 mg/kg i.v., after 4 hours, value for developed pancreonecrosis 0.76 ± 0.05) was 0.16 ± 0.08 μM/ml, the “Activity of lipase in blood serum” value ([1]; dogs (7), hexapeptide 0.3 mg/kg i.v., after 4 hours, value for developed pancreonecrosis 1.15 ± 0.03) was 0.25 ± 0.02 units and the “Antitryptic activity in blood serum” value ([1]; dogs (7), hexapeptide 0.3 mg/kg i.v., after 4 hours, value for developed pancreonecrosis 26.5 ± 1.3) was 78.0 ± 13.1 IU. The “Activity of alpha-amylase in blood serum” value ([1]; dogs (7), hexapeptide 0.3 mg/kg i.v., after 4 hours, value for developed pancreonecrosis 178 ± 28.2) was 246.2 ± 26.7 mg/n · ml, the “Total esterase activity in blood serum” value ([1]; dogs (7), hexapeptide 0.3 mg/kg i.v., after 6 hours, value for developed pancreonecrosis 0.76 ± 0.05) was 0.20 ± 0.09 μM/ml and the “Activity of lipase in blood serum” value ([1]; dogs (7), hexapeptide 0.3 mg/kg i.v., after 6 hours, value for developed pancreonecrosis 1.15 ± 0.03) was 0.40 ± 0.05 units. The “Antitryptic activity in blood serum” value ([1]; dogs (7), hexapeptide 0.3 mg/kg i.v., after 6 hours, value for developed pancreonecrosis 26.5 ± 1.3) was 72.0 ± 2.5 IU, the “Activity of alpha-amylase in blood serum” value ([1]; dogs (7), hexapeptide 0.3 mg/kg i.v., after 6 hours, value for developed pancreonecrosis 178 ± 28.2) was 258.2 ± 33.2 mg/n · ml and the “Activity of lipase in blood serum (in words)” value [1, 6] was “sharply reduced”. The “Increase of the antitryptic activity (in words)” value [1, 6] was “three-time increase”, the “Total esterase activity of blood (in words)” value [1, 6] was “lowered” and the “Synthesis of pancreatic enzymes in acute pancreatitis” value ([1]; dogs, hexapeptide) was “effectively inhibits”. The “Morphology of hemorrhagic pancreonecrosis one day after the treatment” value ([2]; dogs, hexapeptide i.v.) was “positive dynamics”, the “Regeneration of the acinar tissue” value ([2]; dogs, hexapeptide, 14 days after the beginning of the treatment) was “complete regeneration of the acinar tissue” and the “Morphology of pancreas, early stages of treatment” value ([2]; dogs, 5-fluorouracyl 5 mg/kg) was “absence of signs of hemorrhagic zones of necrosis and hemorrhages into the interstice”. For the same molecule, the Antipancreonecrotic activity ([2]; overall conclusion) was “exhibits an antipancreonecrotic activity”, the “Cell formula of the blood” value [4] was “does not change the cell formula of the blood” and the “Pathological responses on the part of the immune system” value [4] was “does not cause pathological responses”. The Processes of homeopoiesis [4] was “does not inhibit the processes of homeopoiesis”, the Solubility ([5]; benzene) was “insoluble” and the Solubility ([5]; distilled water) was “well soluble”. The Solubility ([5]; ethanol) was “well soluble”, the Solubility ([5]; ether) was “insoluble” and the Solubility ([5]; ethylacetate) was “insoluble”. The Solubility ([5]; physiological solution) was “well soluble”, the LD50 [3] was 150 mg/kg and the “LD50 surpasses the therapeutic dose by” value [3] was 500 times.
